Measured values reported in patent publication US10508099B2, “Isoquinolin-3-yl carboxamides and preparation and use thereof” (Samumed, LLC, priority 2016, dated 2019).
Read-outs that look alike come from different tables or passages of the source.

Key:
[1] = tested on: α-smooth muscle actin (αSMA) in LL29 cells; assay: Fibrosis assay: TGF-β1 treated primary human fibroblasts from IPF patients (LL29), αSMA staining; type: cell-based; conditions: for percent in parentheses beside EC50 >10 μM: LL29 cells treated with TGF-β1, given only where EC50 >10 μM (top concentration 10 μM); for EC50: LL29 cells treated with TGF-β1 (20 ng/mL), 4 days
IL-6 in huPBMCs = assay: IL-6 inhibition in LPS-stimulated human peripheral blood mononuclear cells (HTRF); type: cell-based; conditions: for percent in parentheses beside EC50 >10 μM: LPS-stimulated huPBMCs, given only where EC50 >10 μM (top concentration 10 μM); for EC50: LPS-stimulated (50 ng/mL) huPBMCs, 22 hours, dose-response starting from 10 μM
Procedure: After 22 hour incubation, a mixture of anti-IL6 XL665 and anti-IL-6 Cryptate diluted in reconstitution buffer (Catalog #62IL6PEC, Cisbio Inc., Bedford, Mass.) was added to each well. […] All samples were processed in duplicate. […] EC50 was determined using software generated by Dotmatics Limited (Windhill Bishops Stortford Herts, UK) using the Levenberg-Marquardt 4 parameter fitting procedure with finite different gradients.

GSK3β kinase = GSK3β kinase (Homo sapiens (Human), UniProt P49841); assay: GSK3β kinase assay (Ser/Thr 09 peptide Z-lyte FRET); type: biochemical
[2] = tested on: SW480 colon carcinoma cells; assay: Cell viability assay (CellTiter-Glo) in SW480 cells; type: cell-based, human; conditions: for EC50: four days incubation
[3] = tested on: Tau phosphorylation at Ser396 (pSer396) in SH-SY5Y cells; assay: Tau phosphorylation (pSer396) assay in SH-SY5Y cells, ELISA/western blot; type: cell-based, human
Procedure: Two days before treatment, cells were seeded onto 96 well plates at 5×10^4 cells/well.
Wells were visually checked for cell death or change in morphology and supernatants were tested for cytotoxicity by measurement of lactate dehydrogenase release (LDH, CytoToxOne kit, Promega) if necessary.
Cells were lysed with RIPA buffer complemented with phosphatase and protease inhibitors then lysates were spun down at 12,000 g for 10 min to remove any cellular debris. Lysates are then either directly tested for pSer396 by ELISA (Life Technology, Kit KHB7031) or loaded on NuPage Bis-Tris gels for western blot analysis. Colorimetric detection of ELISA signal is performed by Cytation3 plate reader (Biotek) and the chemiluminescence signal for HRP-linked antibodies used in western blotting is detected using a Carestream Image Station. The same pSer396 antibody is used for detection of pTau in both assays.

DYRK1A kinase = DYRK1A kinase (Homo sapiens (Human), UniProt Q13627); assay: DYRK1A kinase assay (Ser/Thr 18 peptide Z-lyte FRET); type: biochemical
[4] = tested on: Wnt activity (Sp5-Luc reporter, TCF/LEF binding sites) in SW480 colon carcinoma cells; assay: Screening assay for Wnt activity: Sp5-Luc reporter gene assay in SW480 cells; type: cell-based, human; conditions: 36 to 48 hours
Procedure: The screening assay for Wnt activity is described as follows.
Following incubation, 15 μl of BriteLite Plus luminescence reagent (Perkin Elmer) was added to each well of the 384-well assay plates. The plates were placed on an orbital shaker for 2 min and then luminescence was quantified using the Envision (Perkin Elmer) plate reader.

IL-6, BV-2 cells = assay: Secreted cytokines in Lipopolysaccharide-stimulated BV-2 mouse microglial cells: IL-6; type: cell-based; conditions: LPS 250 ng/mL for 5 h
Procedure: (§1) Representative compounds were screened using the cell-based assay procedure for secreted cytokines in a Lipopolysaccharide-stimulated mouse glial cell line described below.
(§2) BV-2 cells (mouse microglial cells) were cultured in 1:1 DMEM medium supplemented with 10% FBS, and 1% penicillin/streptomycin.
(§3) BV-2 cells are plated at 35,000 cells/well in a volume of 100 ul for at least 4 hours before compounds are added. DMSO-resuspended compounds were first dispensed in a 96 well plate and serial diluted from 10 μM to 4.6 nM final concentration in medium. Compounds were added to cells overnight. Two hundred fifty ng per milliliter of lipopolysaccharide (Escherichia coli 055:B5, SIGMA) was added for 5 h. Supernatant is removed and saved for further cytokine detection. The original plates with seeded cells were tested for cytotoxicity by measure of adenosine triphosphate (ATP) release by adding CellTiter-Glo® diluted 1:4 in distilled water (G7573, Promega) and transferring lysed cells to a completely black 96-well plate to be read with the Cytation3. Supernatant was then diluted 1:2 with a diluent from V-PLEX cytokine Kit and directly tested for the secreted cytokines TNFα, IL-6 and KC-GRO using electrochemiluminescence (Meso Scale Discovery). The standard curve for each cytokine was used to convert the electrochemiluminescent signal into pg of protein per mL.

TNFα, BV-2 cells = assay: Secreted cytokines in Lipopolysaccharide-stimulated BV-2 mouse microglial cells: TNFα; type: cell-based; conditions: LPS 250 ng/mL for 5 h
Procedure: as §1, §2, §3

KC-GRO, BV-2 cells = assay: Secreted cytokines in Lipopolysaccharide-stimulated BV-2 mouse microglial cells: KC-GRO; type: cell-based; conditions: LPS 250 ng/mL for 5 h
Procedure: as §1, §2, §3

[5] = tested on: secreted β-amyloid 40 (Aβ40) peptide, SH-SY5Y-APP cells; assay: Secreted β-amyloid 40 peptide assay in APP overexpressing SH-SY5Y-APP cells; type: cell-based; conditions: Homo sapiens, overnight (16-18 hours)
Procedure: Representative compounds were screened using the cell-based assay procedure for secreted β-amyloid 40 (Aβ340) peptide in an APP overexpressing cell line described below.
SH-SY5Y cells were infected with lentivirus to overexpress amyloid (A4) beta precursor protein (APP), hereafter referred to as the SH-SY5Y-APP cells. […] Culture medium was changed 18 h post-transfection before a first batch of viral supernatant was then harvested at 42 h post-transfection. Culture medium was replenished once more before a second batch of viral supernatant was harvested 66 h post-transfection.
SH-SY5Y cells were seeded onto 6-well plates at 5.0×10^5 cells/well and incubated overnight at 37° C. Cells were then infected with viral supernatant at concentrations ranging from 10%→100% viral supernatant (diluted in Opti-MEM as appropriate), with 10 μg/mL Polybrene added for permeability (H9268, Sigma). […]
The cell assay procedure start 18 h prior to treatment, as SH-SY5Y-APP cells were seeded onto 96-well plates at 2.0×10^4 cells/well. […] The original plates with seeded cells were tested for cytotoxicity by measure of adenosine triphosphate (ATP) release by adding CellTiter-Glo® diluted 1:4 in distilled water (G7573, Promega) and transferring lysed cells to a completely black 96-well plate to be read with the Cytation3. […]

[6] = GSK3β kinase Z-lyte assay, 46 μM ATP, one hour at room temperature, text calls values IC50
[7] = Homo sapiens, overnight (16-18 h) exposure, pSer396 Tau ELISA, read-out: pSer396 Tau EC50
[8] = DYRK1A kinase Z-lyte assay, 30 μM ATP, one hour at room temperature, text calls values IC50
[9] = Homo sapiens, Fibroblast, 96 h, dose-response 10 μM to 0.94 nM
[10] = overnight (16-18 h) exposure, pSer396 Tau ELISA, read-out: pSer396 Tau EC50

GSK3β kinase, sequence (P49841 whole entry): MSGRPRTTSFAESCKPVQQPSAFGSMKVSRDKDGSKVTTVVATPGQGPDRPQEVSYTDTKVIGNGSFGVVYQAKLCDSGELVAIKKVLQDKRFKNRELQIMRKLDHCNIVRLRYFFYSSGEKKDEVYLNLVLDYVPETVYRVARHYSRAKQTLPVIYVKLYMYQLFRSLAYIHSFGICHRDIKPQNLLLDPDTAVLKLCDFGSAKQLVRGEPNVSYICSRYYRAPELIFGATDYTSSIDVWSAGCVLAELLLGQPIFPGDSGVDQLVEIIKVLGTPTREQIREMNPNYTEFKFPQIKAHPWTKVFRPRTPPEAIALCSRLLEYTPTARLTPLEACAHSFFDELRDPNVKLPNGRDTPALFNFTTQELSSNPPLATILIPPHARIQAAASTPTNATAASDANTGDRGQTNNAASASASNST

Compound: CC(C)CN1CCC[C@@H](C(=O)Nc2cc3cc(-c4cnn5c4CN(CCF)CC5)ccc3cn2)C1 [Compound 1002, (R)—N-(6-(5-(2-Fluoroethyl)-4,5,6,7-tetrahydropyrazolo[1,5-a]pyrazin-3-yl)isoquinolin-3-yl)-1-isobutylpiperidine-3-carboxamide]
- percent in parentheses beside EC50 >10 μM [1]: 27.5%

Compound: Cn1cc(-c2ccc3cnc(NC(=O)CN4C5CCC4CC5)cc3c2)nn1 [Compound 513, 2-(7-Azabicyclo[2.2.1]heptan-7-yl)-N-(6-(1-methyl-1H-1,2,3-triazol-4-yl)isoquinolin-3-yl)acetamide]
- percent in parentheses beside EC50 >10 μM (IL-6 in huPBMCs): 14.5%

Compound: CN1CCN(C[C@H]2CC[C@H](C(=O)Nc3cc4cc(-c5cnco5)ccc4cn3)CC2)CC1 [Compound 1007, trans-4-((4-methylpiperazin-1-yl)methyl)-N-(6-(oxazol-5-yl)isoquinolin-3-yl)cyclohexane-1-carboxamide]
- EC50 (GSK3β kinase; [6]): 83 nM
- EC50 ([2]; Homo sapiens, 96 h): 922 nM
- EC50 (IL-6 in huPBMCs; Homo sapiens, PBMC): 1260 nM
- EC50 [3, 7]: 435 nM
- EC50 (DYRK1A kinase; [8]): 2.4 nM
- EC50 ([4]; Homo sapiens): 1130 nM
- EC50 [1, 9]: 942 nM

Compound: Cc1nnc(-c2ccc3cnc(NC(=O)CN4C5CCC4CC5)cc3c2)s1 [Compound 959, 2-(7-Azabicyclo[2.2.1]heptan-7-yl)-N-(6-(5-methyl-1,3,4-thiadiazol-2-yl)isoquinolin-3-yl)acetamide]
- percent in parentheses beside EC50 >10 μM (IL-6 in huPBMCs): 6.1%

Compound: C[C@H](F)CN1CCC(C(=O)Nc2cc3cc(-c4cnn(C)c4)ccc3cn2)CC1 [Compound 311, (S)-1-(2-Fluoropropyl)-N-(6-(1-methyl-1H-pyrazol-4-yl)isoquinolin-3-yl) piperidine-4-carboxamide]
- EC50 ([2]; Homo sapiens, 96 h): 751 nM
- EC50 (IL-6 in huPBMCs; Homo sapiens, PBMC): 396 nM
- EC50 [3, 7]: 163 nM
- EC50 ([4]; Homo sapiens): 578 nM
- EC50 [1, 9]: 76 nM

Compound: CO[C@H]1CC[C@@H](C(=O)Nc2cc3cc(-c4nnc(C)s4)ccc3cn2)CC1 [Compound 1001, cis-4-Methoxy-N-(6-(5-methyl-1,3,4-thiadiazol-2-yl)isoquinolin-3-yl) cyclohexane-1-carboxamide]
- inhibition at 10 µM (IL-6 in huPBMCs; Homo sapiens, PBMC, read-out: percent in parentheses beside EC50 >10 μM): 49.7%

Compound: CCN1/C(=C/C(C)=O)Sc2ccc(O)cc21 [Indy, reference compound]
- EC50 ([3]; control compounds, read-out: EC50 in the Tau assay): > 10000 nM

Compound: Cc1nnc(-c2ccc3cnc(NC(=O)CN4C5CCC4COC5)cc3c2)s1 [Compound 962, 2-(3-Oxa-8-azabicyclo[3.2.1]octan-8-yl)-N-(6-(5-methyl-1,3,4-thiadiazol-2-yl)isoquinolin-3-yl)acetamide]
- percent in parentheses beside EC50 >10 μM (IL-6 in huPBMCs): 9.6%

Compound: Cn1cc(-c2ccc3cnc(NC(=O)C4C(C)(C)C4(C)C)cc3c2)nn1 [Compound 277, 2,2,3,3-Tetramethyl-N-(6-(1-methyl-1H-1,2,3-triazol-4-yl)isoquinolin-3-yl) cyclopropane-1-carboxamide]
- percent in parentheses beside EC50 >10 μM (IL-6 in huPBMCs): 4.0%

Compound: Cc1nnc(-c2ccc3cnc(NC(=O)CN4CCCOCC4)cc3c2)s1 [Compound 1049, N-(6-(5-Methyl-1,3,4-thiadiazol-2-yl)isoquinolin-3-yl)-2-(1,4-oxazepan-4-yl) acetamide]
- percent inhibition at 10 μM ([2]; at 10 μM, given for EC50 of >10 μM): 31.3%
- EC50 [2]: > 10000 nM
- EC50 (IL-6 in huPBMCs): > 10000 nM
- percent in parentheses beside EC50 >10 μM (IL-6 in huPBMCs): 10.4%
- EC50 [3, 10]: 319 nM
- EC50 [4]: 2540 nM

Compound: Cn1cc(-c2ccc3cnc(NC(=O)CN4C5CCC4COC5)cc3c2)cn1 [Compound 347, 2-(3-Oxa-8-azabicyclo[3.2.1]octan-8-yl)-N-(6-(1-methyl-1H-pyrazol-4-yl)isoquinolin-3-yl)acetamide]
- percent in parentheses beside EC50 >10 μM (IL-6 in huPBMCs): 4.5%

Compound: Cn1cc(-c2ccc3cnc(NC(=O)C4CCN(CC(C)(C)O)CC4)cc3c2)nn1 [Compound 1070, 1-(2-Hydroxy-2-methylpropyl)-N-(6-(1-methyl-1H-1,2,3-triazol-4-yl)isoquinolin-3-yl)piperidine-4-carboxamide]
- EC50 (GSK3β kinase): 16 nM
- EC50 (IL-6, BV-2 cells; Mus musculus): 14 nM
- EC50 ([2]; Homo sapiens, 96 h): 8390 nM
- EC50 (IL-6 in huPBMCs; Homo sapiens, PBMC): 6470 nM
- EC50 [3, 7]: 91 nM
- EC50 (DYRK1A kinase): 7.6 nM
- EC50 ([4]; Homo sapiens): 738 nM

Compound: 1-Isobutyl-N-(6-(5-methyl-1,3,4-oxadiazol-2-yl)isoquinolin-3-yl)piperidine-4-carboxamide [Compound 1020]
- EC50 (GSK3β kinase; [6]): 13 nM
- EC50 (IL-6, BV-2 cells): 87 nM
- EC50 [2]: 1030 nM
- EC50 (IL-6 in huPBMCs): 1180 nM
- EC50 [3, 10]: 49 nM
- EC50 (DYRK1A kinase; [8]): 10.4 nM
- EC50 [4]: 1140 nM
- EC50 (TNFα, BV-2 cells): 597 nM
- EC50 ([1]; dose-response 10 μM to […]): > 10000 nM
- percent in parentheses beside EC50 >10 μM [1]: 30.6%
- EC50 (KC-GRO, BV-2 cells): 708 nM

Compound: Cn1cc(-c2ccc3cnc(NC(=O)C45CCN(CC4)CC5)cc3c2)cn1 [Compound 1071, N-(6-(1-Methyl-1H-pyrazol-4-yl)isoquinolin-3-yl)quinuclidine-4-carboxamide]
- percent in parentheses beside EC50 >10 μM (IL-6 in huPBMCs): 8.8%

Compound: Cn1cncc1-c1ccc2cnc(NC(=O)C3C(C)(C)C3(C)C)cc2c1 [Compound 269, 2,2,3,3-Tetramethyl-N-[6-(3-methylimidazol-4-yl)-3-isoquinolyl]cyclopropanecarboxamide]
- IC50 [5]: > 10000 nM
